Data on 1 substance can be found in US6111080A, “Monoclonal antibodies” (Washington University, priority 1993, dated 2000).

This assay has as its system RGD-binding receptor on PMN (B6H12 antigen, heterodimer of 140 kd and 105 kd). Kind of assay: Cytochrome c-RGDS binding assay (inhibition of 125I-cc-RGDS specific binding to PMN). Also on record: species or system human. Particulars: unlabelled inhibitor 500 μg/ml; 40 μg 125I-cc-RGDS, 1.0 × 10^6 PMN, 5,000 units catalase in 1 ml, 30 min at 37° C.; relative to cc-C. Here is the method: Cytochrome c-RGDS was radioiodinated by chloroglycoluril [Markwell and Fox, Biochemistry 17, 4807-4817 (1978)] for 15 min at 0° C. PMN (5.0×10^5) in HBSS^++ -1% OVA were incubated with 10 μg of radiolabelled cc-RGDS in the presence of 5K U/ml of catalase and 293 μg of unlabelled cc-C in a final volume of 250 μl. The reaction mixtures were incubated in 1.5 ml Eppendorf tubes for 30 min at 37° C. The mixtures were overlayered on Versilube (General Electric) and centrifuged at 12,000×g to assess pellet associated radioactivity. Specific binding was determined by subtracting the radioactivity bound in the presence of […] of unlabelled cc-RGDS from the total radioactivity. Unlabelled cc-C was included in the reaction to control for any binding due to cytochrome c and not specifically due to the RGDS moiety. For inhibition tests, the various inhibitors were included in the reaction at the indicated concentrations. Antibodies were incubated with the PMN at the indicated concentrations for 15 min at room temperature prior to the addition of the other reactants.
^a PMN (1.0 × 10^6) were incubated with 40 μg of ^12
Icc-RGDS with the indicated concentrations of unlabelled inhibitors in th
presence of 5,000 units of catalase in 1 ml for 30 min at 37° C.
The PMN were centrifuged through oil and the pelletassociated counts
assessed. […]
^b Calculated from the mean cpm's. […]

Consider GRGDSC, for which the “% I (percent inhibition of cc-RGDS specific binding to PMN)” value is recorded as 79.6%.
